# Experimental data from ChEMBL document CHEMBL1148139, “Antiangiogenic activity of synthetic dihydrobenzofuran lignans” (J Nat Prod, 2002).
# Active and inactive are the calls of the source. The calls are words filed in the database; no cut-off is given here.
# Columns and labels:
# [1] = Toxicity to fertilized chicken eggs assessed as membrane irritating activity at 20 ug/pellet; set-up: species or system Gallus gallus; settings: in vivo, other
# Gallus gallus [2] = organism: Gallus gallus; assay: Antiangiogenic activity in fertilized chicken eggs at 20 ug/pellet by CAM assay; format: functional; settings: Egg
# Gallus gallus [3] = organism: Gallus gallus; assay: Antiangiogenic activity in fertilized chicken eggs at 5 ug/pellet by CAM assay; format: functional; settings: Egg
structure (smiles),measurement,setting,value
COC(=O)/C=C/c1cc(O)c2c(c1)[C@@H](C(=O)OC)[C@H](c1ccc(O)c(O)c1)O2,Activity,[1],50%
same,Activity,Gallus gallus [2],Active
same,Activity,Gallus gallus [3],Active
